l = locked nucleic acid (LNA); [5mC] = 5-methylcytosine; d = 2'-deoxy (DNA)

The data set relates to yeast HSP78 (YDR258C) sequence. Kind of data set: Duplex melting temperatures of HSP78 25-mer capture probes (UV spectrophotometer). The conditions noted are these: 25-mer capture probe duplex with complementary target; design PM = perfectly matched, MM = single mismatch; DNA, LNA_T (T) or LNA_TC (TC) substituted.
Regarding “12680 (DNA ACCATCATCACCGAACTTTGTGTCG; DNA, backbone not given here) [compound 12680]”, the “Average duplex melting temp.” value was determined as 63.6 °C. Take “12730 (DNA TGGCCTAGGGAAACGGTCAGCTTAC; sugars from the 5' end lddldlddddddddddldddldldd, [5mC] at 4, 21, backbone not given here) [compound 12730]”: the “Average duplex melting temp.” value came out at 75.5 °C. On to “12764 (DNA GATGAACTCAGGTGGATAGGATCTT; DNA, backbone not given here; further chemistry not fully specified) [compound 12764]”, for which the “Average duplex melting temp.” value was 64 °C. “12720 (DNA TTTGGTAGCACGTCAAGCTTAGTAT; sugars from the 5' end lllddlddddddddddddllddldd, backbone not given here) [compound 12720]”: the “Average duplex melting temp.” value came out at 68.6 °C. In the case of “12760 (DNA GACCTAAGAACATAAAGCTGGCAAT; DNA, backbone not given here; further chemistry not fully specified) [compound 12760]” it was 63.5 °C.

“12704 (DNA ACCATCATCACCGAACTTTGTGTCG; DNA at ACG, LNA at T, backbone not given here) [compound 12704]”: the “Average duplex melting temp.” value was found to be 74 °C. In the case of “12688 (DNA GACCTAAGAACAAAAAGCTGGCAAT; DNA, backbone not given here) [compound 12688]” it was 58.2 °C; in that of “12776 (DNA ACCATCATCACCCAACTTTGTGTCG; DNA at ACG, LNA at T, backbone not given here; further chemistry not fully specified) [compound 12776]”, 79.2 °C.

With “12739 (DNA GCAATGGCCTCGACTTGGCCAACGA; sugars from the 5' end d10 l1 d2 l1 d11, [5mC] at 11, 14, backbone not given here) [compound 12739]”, the “Average duplex melting temp.” value turned out to be 73.1 °C. “12763 (DNA GCAATGGCCTCGTCTTGGCCAACGA; DNA, backbone not given here; further chemistry not fully specified) [compound 12763]”: the “Average duplex melting temp.” value turned out to be 72.8 °C. With “12690 (DNA ATAGCAGCAATGCCCTCGTCTTGGC; DNA, backbone not given here) [compound 12690]”, the “Average duplex melting temp.” value worked out at 62.9 °C. In the case of “12789 (DNA TCAGTTAGCCAATCCTTCGCTTCAT; sugars from the 5' end ldddllddddddlddlldddllddd, backbone not given here; further chemistry not fully specified) [compound 12789]” it was 75.7 °C; in that of “12695 (DNA AGACGTACAGCAACAGAAATAGCAG; DNA, backbone not given here) [compound 12695]”, 61.2 °C. In the case of “12684 (DNA GAAACATCGGGGAGCGCTTTTTCAA; DNA, backbone not given here) [compound 12684]” it was 63.8 °C.

“12715 (DNA GCAATGGCCTCGACTTGGCCAACGA; DNA at ACG, LNA at T, backbone not given here) [compound 12715]”: the “Average duplex melting temp.” value turned out to be 73.7 °C. Consider “12754 (DNA TGGCCTAGGGAATCGGTCAGCTTAC; DNA, backbone not given here; further chemistry not fully specified) [compound 12754]”, for which the “Average duplex melting temp.” value was 70.1 °C.

For the substance “12686 (DNA CCGATTAAACGACAGACAGTATGCT; DNA, backbone not given here) [compound 12686]”, the “Average duplex melting temp.” value turned out to be 57.1 °C. The result for “12728 (DNA ACCATCATCACCCAACCTTGTGTCG; sugars from the 5' end dlddlddldddddddddlddlddld, [5mC] at 2, 24, backbone not given here) [compound 12728]” reads 70.2 °C; that for “12694 (DNA GTTGCCATGGAGATCAAAATCTGTC; DNA, backbone not given here) [compound 12694]”, 60 °C; that for “12775 (DNA CCCAACTTTGTGTCGTTTAATAAAA; DNA, backbone not given here; further chemistry not fully specified) [compound 12775]”, 61 °C. In the case of “12799 (DNA CCCAACTTTGTGTCGTTTAATAAAA; DNA at ACG, LNA at T, backbone not given here; further chemistry not fully specified) [compound 12799]” it was 75.1 °C; in that of “12798 (DNA ATTGACCTCAAAACTTTCTTGGATA; DNA at ACG, LNA at T, backbone not given here; further chemistry not fully specified) [compound 12798]”, 70.2 °C; in that of “12816 (DNA TTTGGTAGCACGACAAGCTTAGTAT; sugars from the 5' end ldlddlddldlddldddldlddldd, all C 5-methyl, backbone not given here; further chemistry not fully specified) [compound 12816]”, 79 °C.

For “12725 (DNA AAAACGACAGCAAAAGGCTTTCTTC; sugars from the 5' end d18 l3 d1 l2 d1, backbone not given here) [compound 12725]”, the “Average duplex melting temp.” value amounted to 65.9 °C.

Consider “12716 (DNA GATGAACTCAGGAGGATAGGATCTT; sugars from the 5' end ddlddddlddddddddlddddldld, backbone not given here) [compound 12716]”, for which the “Average duplex melting temp.” value was determined as 64.9 °C. For the substance “12785 (DNA AAATAGCAGCAATGGCCTCGTCTTG; DNA at ACG, LNA at T, backbone not given here; further chemistry not fully specified) [compound 12785]”, the “Average duplex melting temp.” value stood at 77.2 °C. The result for “12813 (DNA TCAGTTAGCCAATCCTTCGCTTCAT; sugars from the 5' end llddlddddlddldldlldlddldd, [5mC] at 2, 10, 15, 18, 20, 23, backbone not given here; further chemistry not fully specified) [compound 12813]” reads 81.8 °C; that for “12793 (DNA ATAAAGCTGGCAATAGGTCTCTTTT; sugars from the 5' end dldddddldddddldddldldllld, backbone not given here; further chemistry not fully specified) [compound 12793]”, 74.3 °C. In the case of “12747 (DNA CACTCTAACAGTATCGCCGTTTCTA; sugars from the 5' end ldldldddldddddddlddldllld, [5mC] at 1, 3, 5, 9, 17, 23, backbone not given here) [compound 12747]” it was 75.2 °C.

For “12736 (DNA GACCTAAGAACAAAAAGCTGGCAAT; sugars from the 5' end ddllldddddlddddddllddlddd, all C 5-methyl, backbone not given here) [compound 12736]”, the “Average duplex melting temp.” value was 71.4 °C. With “12753 (DNA CAATGATCGTGTTACGGAAATCAAC; DNA, backbone not given here; further chemistry not fully specified) [compound 12753]”, the “Average duplex melting temp.” value was 64.2 °C. In the case of “12805 (DNA GACAGCCTCAGTTAATTGGCCACCA; sugars from the 5' end ddlddldlddddlddlldddlddld, [5mC] at 3, 6, 21, 24, backbone not given here; further chemistry not fully specified) [compound 12805]”, the “Average duplex melting temp.” value was 82.5 °C. The result for “12807 (DNA ATCAAATAGGAATTCAGCTAAAGCC; sugars from the 5' end dlldddldddddldlddllddddld, [5mC] at 3, 15, 18, 24, backbone not given here; further chemistry not fully specified) [compound 12807]” reads 71.4 °C; that for “12689 (DNA AAATAGCAGCAAAGGCCTCGTCTTG; DNA, backbone not given here) [compound 12689]”, 64 °C; that for “12791 (DNA AGACGTACAGCATCAGAAATAGCAG; DNA at ACG, LNA at T, backbone not given here; further chemistry not fully specified) [compound 12791]”, 71.4 °C. In the case of “12821 (DNA AAAACGACAGCATAAGGCTTTCTTC; sugars from the 5' end ddddlddlddldlddddlldlldld, [5mC] at 5, 8, 11, 18, 22, backbone not given here; further chemistry not fully specified) [compound 12821]” it was 79 °C; in that of “12742 (DNA GTTGCCATGGAGATCAAAATCTGTC; sugars from the 5' end dlddlldlddddddlddddllddld, [5mC] at 5, 6, 15, 21, backbone not given here) [compound 12742]”, 61.6 °C. Consider “12731 (DNA TTGGAAACATCGCGGTGCGCTTTTT; sugars from the 5' end lldddddlddlddddldldddldld, [5mC] at 8, 11, 18, backbone not given here) [compound 12731]”, for which the “Average duplex melting temp.” value was determined as 72 °C.

Consider “12822 (DNA ATTGACCTCAAAACTTTCTTGGATA; sugars from the 5' end dllddllllddddllldllldddld, all C 5-methyl, backbone not given here; further chemistry not fully specified) [compound 12822]”, for which the “Average duplex melting temp.” value amounted to 75.6 °C. In the case of “12709 (DNA GACAGCCTCAGTAAATTGGCCACCA; sugars from the 5' end d7 l1 d7 l2 d8, backbone not given here) [compound 12709]”, the “Average duplex melting temp.” value turned out to be 68.8 °C.

Source of the values: US9464106B2, “Oligonucleotides useful for detecting and analyzing nucleic acids of interest” (Exiqon A/S, priority 2002, dated 2016).
